Reference: the NIST ThermoML archive (doi:10.1016/j.fluid.2018.02.015)
± gives the expanded uncertainty stated by the source.

How the values were obtained:
[1] = 99.9 kPa, Liquid, Vibrating tube method
[2] = refractive index (Na D-line) (dimensionless); details: 99.9 kPa, Liquid, Standard Abbe refractometry

Structure (SMILES) | mass density ([1]; 293.15 K) [kg/m3] | mass density ([1]; 294.15 K) [kg/m3] | mass density ([1]; 295.15 K) [kg/m3] | mass density ([1]; 296.15 K) [kg/m3] | mass density ([1]; 297.15 K) [kg/m3] | mass density ([1]; 298.15 K) [kg/m3] | mass density ([1]; 299.62 K) [kg/m3] | refractive index ([2]; 293.15 K) | refractive index ([2]; 298.15 K) | mass density ([1]; 299.75 K) [kg/m3]
CCCCCCCCCC [decane] | 729.762 ± 0.33 | 728.496 ± 0.29 | 727.738 ± 0.26 | 726.983 ± 0.26 | 726.227 ± 0.26 | 725.467 ± 0.26 | 724.355 ± 0.26 | 1.41196 ± 0.0005 | 1.40964 ± 0.0005 | –
CCCCCCCCC [nonane] | 717.883 ± 0.33 | 716.601 ± 0.29 | 715.824 ± 0.26 | 715.045 ± 0.26 | 714.268 ± 0.25 | 713.689 ± 0.24 | – | 1.40595 ± 0.00049 | 1.40329 ± 0.00049 | –
CCCCCCCCCCC [undecane] | 739.96 ± 0.29 | – | 737.96 ± 0.27 | – | 736.48 ± 0.25 | 735.73 ± 0.25 | – | 1.41726 ± 0.00049 | 1.41502 ± 0.00049 | 734.56 ± 0.25
